US8293781B2, “Indole derivatives having cPLA2 inhibiting activity and applications and production methods of the same” (Daiichi Sankyo Company, Limited, priority 2007, dated 2012)
pIC50: −log10 of the molar value. Structures can show the parent of a compound that is named as a salt. Where two headings read alike, the source gives them in different places.

Target: T1, cPLA2 crudely purified from the cytoplasm fraction of U937 (Homo sapiens, UniProt P47712)
T1 construct: cPLA2 crudely purified from the cytoplasm fraction of U937; endogenous in cells; host or cells: U937 cells (cytoplasm fraction, crude purification)
T1 sequence (P47712 1-749): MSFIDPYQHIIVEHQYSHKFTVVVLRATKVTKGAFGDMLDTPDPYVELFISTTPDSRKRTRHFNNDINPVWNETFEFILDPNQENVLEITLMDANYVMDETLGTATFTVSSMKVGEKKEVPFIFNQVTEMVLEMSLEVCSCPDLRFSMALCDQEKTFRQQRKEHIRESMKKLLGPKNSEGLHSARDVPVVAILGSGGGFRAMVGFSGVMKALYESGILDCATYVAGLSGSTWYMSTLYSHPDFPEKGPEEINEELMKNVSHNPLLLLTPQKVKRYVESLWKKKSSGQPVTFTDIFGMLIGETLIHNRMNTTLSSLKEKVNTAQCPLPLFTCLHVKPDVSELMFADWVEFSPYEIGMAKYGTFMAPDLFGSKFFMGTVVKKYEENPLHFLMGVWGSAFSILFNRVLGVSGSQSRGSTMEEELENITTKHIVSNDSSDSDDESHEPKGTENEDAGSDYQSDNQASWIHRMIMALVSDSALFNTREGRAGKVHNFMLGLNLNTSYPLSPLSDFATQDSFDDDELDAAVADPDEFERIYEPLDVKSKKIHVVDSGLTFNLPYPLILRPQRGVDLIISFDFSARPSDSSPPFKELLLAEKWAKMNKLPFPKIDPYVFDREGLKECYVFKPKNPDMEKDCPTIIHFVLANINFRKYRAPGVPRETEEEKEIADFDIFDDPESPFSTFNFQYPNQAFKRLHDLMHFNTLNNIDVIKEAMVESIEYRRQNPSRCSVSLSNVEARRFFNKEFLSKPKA
Test: Measurement of cPLA2 inhibitory activity (release of [14C]-arachidonic acid from phosphatidyl choline liposome)
Type: biochemical
Description: The cPLA2 inhibitory activity was measured based on the method described in the document [See H. Naraba et al., J. Immunol. 160, 2974-2982 (1998)] and modified in the following way.
A DMSO solution of the present invitation compounds was diluted to 2.5 times the final concentration with the assay buffer (4 mM CaCl2, 2 mM dithiothreitol, 150 mM NaCl, 50 mM HEPES buffer solution (pH7.5)) containing 0.55 mg/ml BSA. To 20 μl of this, cPLA2 crudely purified from the cytoplasm fraction of U937 was added in an amount of 10 μl after dilution by an assay buffer solution containing 0.55 mg/ml BSA. A liposome prepared by ultrasonically treating L-α-1-palmitoyl-2-[14C]arachidonyl-phosphatidyl choline (made by PerkinElmer) and adjusted by the assay buffer solution to a concentration of phosphatidyl choline of 10 μM was added and stirred in by an amount of 20 μl and the mixture was reacted at 37° C. for 60 minutes. The [^14C]-arachidonic acid released due to the reaction was extracted based on the method described in the documents [see V. P. Dole et al., J. Biol. Chem. 235, 2595 (1960)], was added to Lumaplate® (made by PerkinElmer), dried, then measured by Topcount® (made by PerkinElmer). Except for not adding the present invention compounds, the same procedure was performed as the above to obtain the enzyme control. Except for not adding the invention compounds and not adding the enzyme, the same procedure was followed as above to obtain a negative control. The inhibiting activity was expressed as a percent (%) of the value minus the negative control with respect to the value of the enzyme control minus the negative control. From this, the 50% inhibiting concentration (IC50, μM) was calculated.

[1] = cPLA2 from U937 cytoplasm fraction, [14C]arachidonyl-phosphatidyl choline liposome, 37° C., 60 minutes, read-out: cPLA2 inhibitory activity, 50% inhibiting concentration IC50

| SMILES | pIC50 [1] | pIC50 |
| --- | --- | --- |
| O=C(O)CCc1ccc2c(c1)c(CCc1ccc(Cl)cc1)cn2-c1ccccc1 [Example 58, 3-{3-[2-(4-chlorophenyl)ethyl]-1-phenyl-1H-indol-5-yl}propanoic acid 2-amino-2-(hydroxymethyl)propane-1,3-diol salt (1:1)] | 5.94 |  |
| O=C(O)/C=C/c1ccc2c(c1)c(C(=O)Cc1ccc(F)cc1)cn2-c1ccccc1 [Example 60, (2E)-3-{3-[(4-fluorophenyl)acetyl]-1-phenyl-1H-indol-5-yl}-2-propenoic acid] |  | 5.24 |
| O=C(O)CCc1ccc2c(c1)c(C(=O)Cc1ccc(F)cc1)cn2-c1ccccc1 [Example 61, 3-{3-[(4-fluorophenyl)acetyl]-1-phenyl-1H-indol-5-yl}propanoic acid] |  | 6.19 |
| O=C(O)CCc1ccc2c(c1)c(CCc1ccc(F)cc1)cn2-c1ccccc1 [Example 62, 3-{3-[2-(4-fluorophenyl)ethyl]-1-phenyl-1H-indol-5-yl}propanoic acid 2-amino-2-(hydroxymethyl)propane-1,3-diol salt (1:1)] | 6.25 |  |
| COc1ccc(CC(=O)c2cn(-c3ccccc3)c3ccc(/C=C/C(=O)O)cc23)cc1 [Example 64, (2E)-3-{3-[(4-methoxyphenyl)acetyl]-1-phenyl-1H-indol-5-yl}-2-propenoic acid] |  | 4.71 |
| COc1ccc(CC(=O)c2cn(-c3ccccc3)c3ccc(CCC(=O)O)cc23)cc1 [Example 65, 3-{3-[(4-methoxyphenyl)acetyl]-1-phenyl-1H-indol-5-yl}propanoic acid] |  | 5.72 |
| COc1ccc(CCc2cn(-c3ccccc3)c3ccc(CCC(=O)O)cc23)cc1 [Example 66, 3-{3-[2-(4-methoxyphenyl)ethyl]-1-phenyl-1H-indol-5-yl}propanoic acid 2-amino-2-(hydroxymethyl)propane-1,3-diol salt (1:1)] | 6.14 |  |
| COc1cccc(CCc2cn(-c3ccccc3)c3ccc(CCC(=O)O)cc23)c1 [Example 68, 3-{3-[2-(3-methoxyphenyl)ethyl]-1-phenyl-1H-indol-5-yl}propanoic acid 2-amino-2-(hydroxymethyl)propane-1,3-diol salt (1:1)] | 6.00 |  |
| COc1ccc(CCc2cn(-c3ccccc3)c3ccc(CCC(=O)O)cc23)cc1OC [Example 70, 3-{3-[2-(3,4-dimethoxyphenyl)ethyl]-1-phenyl-1H-indol-5-yl}propanoic acid 2-amino-2-(hydroxymethyl)propane-1,3-diol salt (1:1)] | 5.87 |  |
| COc1ccc(-n2cc(CCc3ccccc3)c3cc(/C=C/C(=O)O)ccc32)cc1 [Example 74, (2E)-3-[1-(4-methoxyphenyl)-3-(2-phenylethyl)-1H-indol-5-yl]-2-propenoic acid] | 6.80 |  |
| COc1ccc(-n2cc(CCc3ccccc3)c3cc(CCC(=O)O)ccc32)cc1 [Example 77, 3-[1-(4-methoxyphenyl)-3-(2-phenylethyl)-1H-indol-5-yl]propanoic acid 2-amino-2-(hydroxymethyl)propane-1,3-diol salt (1:1)] | 7.59 |  |
| O=C(O)CCc1ccc2c(c1)c(CCc1ccccc1)cn2-c1ccc(C(=O)O)cc1 [Example 79, 4-[5-(2-carboxyethyl)-3-(2-phenylethyl)-1H-indol-1-yl]benzoic acid] | 6.74 |  |
| N#Cc1ccc(-n2cc(CCc3ccccc3)c3cc(CCC(=O)O)ccc32)cc1 [Example 81, 3-[1-(4-cyanophenyl)-3-(2-phenylethyl)-1H-indol-5-yl]propanoic acid] | 7.24 |  |
| O=C(O)CCc1ccc2c(c1)c(CCc1ccccc1)cn2-c1ccc([N+](=O)[O-])cc1 [Example 83, 3-[1-(4-nitrophenyl)-3-(2-phenylethyl)-1H-indol-5-yl]propanoic acid] | 7.00 |  |
| CN(C)c1ccc(-n2cc(CCc3ccccc3)c3cc(CCC(=O)O)ccc32)cc1 [Example 85, 3-{1-[4-(dimethylamino)phenyl]-3-(2-phenylethyl)-1H-indol-5-yl}propanoic acid] | 7.11 |  |
| CN(C)c1ccc(-n2cc(CCc3ccccc3)c3cc(CCC(=O)O)ccc32)cc1 [Example 86, 3-{1-[4-(dimethylamino)phenyl]-3-(2-phenylethyl)-1H-indol-5-yl}propanoic acid 2-amino-2-(hydroxymethyl)propane-1,3-diol salt (1:1)] | 7.62 |  |
| CCN(CC)c1ccc(-n2cc(CCc3ccccc3)c3cc(CCC(=O)O)ccc32)cc1 [Example 88, 3-{1-[4-(diethylamino)phenyl]-3-(2-phenylethyl)-1H-indol-5-yl}propanoic acid] | 6.85 |  |
| CC(=O)Nc1ccc(-n2cc(CCc3ccccc3)c3cc(CCC(=O)O)ccc32)cc1 [Example 91, 3-{1-[4-(acetylamino)phenyl]-3-(2-phenylethyl)-1H-indol-5-yl}propanoic acid 2-amino-2-(hydroxymethyl)propane-1,3-diol salt (1:1)] | 6.68 |  |
| CC(C)(C)C(=O)Nc1ccc(-n2cc(CCc3ccccc3)c3cc(CCC(=O)O)ccc32)cc1 [Example 93, 3-[1-{4-[(2,2-dimethylpropanoyl)amino]phenyl}-3-(2-phenylethyl)-1H-indol-5-yl]propanoic acid 2-amino-2-(hydroxymethyl)propane-1,3-diol salt (1:1)] | 6.95 |  |
| Cc1ccc(-n2cc(CCc3ccccc3)c3cc(CCC(=O)O)ccc32)cc1 [Example 95, 3-[1-(4-methylphenyl)-3-(2-phenylethyl)-1H-indol-5-yl]propanoic acid 2-amino-2-(hydroxymethyl)propane-1,3-diol salt (1:1)] | 7.11 |  |
| Cc1cccc(-n2cc(CCc3ccccc3)c3cc(CCC(=O)O)ccc32)c1 [Example 97, 3-[1-(3-methylphenyl)-3-(2-phenylethyl)-1H-indol-5-yl]propanoic acid 2-amino-2-(hydroxymethyl)propane-1,3-diol salt (1:1)] | 7.00 |  |
| Cc1ccccc1-n1cc(CCc2ccccc2)c2cc(CCC(=O)O)ccc21 [Example 99, 3-[1-(2-methylphenyl)-3-(2-phenylethyl)-1H-indol-5-yl]propanoic acid 2-amino-2-(hydroxymethyl)propane-1,3-diol salt (1:1)] | 6.54 |  |
| Cc1ccc(-n2cc(CCc3ccccc3)c3cc(CCC(=O)O)ccc32)cc1C [Example 101, 3-[1-(3,4-dimethylphenyl)-3-(2-phenylethyl)-1H-indol-5-yl]propanoic acid 2-amino-2-(hydroxymethyl)propane-1,3-diol salt (1:1)] | 7.02 |  |
| CC(C)(C)c1ccc(-n2cc(CCc3ccccc3)c3cc(CCC(=O)O)ccc32)cc1 [Example 103, 3-[1-(4-tert-butylphenyl)-3-(2-phenylethyl)-1H-indol-5-yl]propanoic acid 2-amino-2-(hydroxymethyl)propane-1,3-diol salt (1:1)] | 6.38 |  |
| O=C(O)CCc1ccc2c(c1)c(CCc1ccccc1)cn2-c1ccc(Cl)cc1 [Example 105, 3-[1-(4-chlorophenyl)-3-(2-phenylethyl)-1H-indol-5-yl]propanoic acid 2-amino-2-(hydroxymethyl)propane-1,3-diol salt (1:1)] | 7.44 |  |
| COc1cccc(-n2cc(CCc3ccccc3)c3cc(CCC(=O)O)ccc32)c1 [Example 107, 3-[1-(3-methoxyphenyl)-3-(2-phenylethyl)-1H-indol-5-yl]propanoic acid 2-amino-2-(hydroxymethyl)propane-1,3-diol salt (1:1)] | 6.71 |  |
| COc1ccccc1-n1cc(CCc2ccccc2)c2cc(CCC(=O)O)ccc21 [Example 109, 3-[1-(2-methoxyphenyl)-3-(2-phenylethyl)-1H-indol-5-yl]propanoic acid 2-amino-2-(hydroxymethyl)propane-1,3-diol salt (1:1)] | 6.65 |  |
